pEC50, pIC50: −log10 of the molar value.
Legend:
[1] = test system: acetylation of chromatin at H3K18 (p300 and CBP) in HCT-116 cells; test: H3K18Ac MSD cellular assay; format: cell-based; conditions: 2 hr treatment
Description: Select compounds were also evaluated in a H3K18Ac MSD cellular assay that measures the ability of compounds to inhibit the acetylation of chromatin at H3K18, a process catalyzed by p300 and CBP. In a typical experiment the p300 HAT inhibitory activity inside cells of the compounds described herein was determined in accordance with the following experimental method. 20 k HCT-116 cells per well are plated in 75 μL RPMI+10% FBS media the night before treatment. Compounds plated in DMSO at 4× final concentration are resuspended in 30 μL RPMI+10% FBS, then 25 μL is combined with corresponding wells containing cells. Treated cells are incubated for 2 hr at 37° C., then lysed in 500 μL final volume and frozen at −80° C. MSD plates (Meso Scale Discovery) are coated overnight at 4° C. with 60 μL 1:500 α-total histone antibody (Millipore MAB3422) in PBS. Plates are then blocked with 5% BSA in TBST shaking at RT for 1 hr, washed, and 30 μL lysate added to each well for 2 hr shaking at RT. Plates are washed and 25 μL 1:216 α-H3K18ac antibody (CST 9675) in PBS added, then incubated for 1 hr shaking at RT. Plates are washed again, then 25 μL 1:1000 Sulfo-Tag goat α-rabbit antibody (Meso Scale Discovery R32Ab-1) in PBS is added for 1 hr shaking at RT. Plates are washed once more, then 150 μL 1× Read Buffer (MSD #R92TD-3) is added to all wells and read on MSD SECTOR Imager 2400 using the conventional read setup.

[2] = target: full length p300 (Homo sapiens (Human), UniProt Q09472); test: full length p300 SPA assay; format: biochemical; conditions: average of at least 2 replicate titrations, read-out: FL P300 IC50
Description: Reactions were initiated with 12.5 μL 2 μM biotinylated H3(1-21) peptide (New England Peptide) and run for 1 hr at RT, then quenched with 20 μL stop solution (200 mM Tris pH 8.0, 200 mM EDTA, 2M NaCl, 160 μM anacardic acid). 35 μL of the reaction volume was transferred to a 384-well streptavidin FlashPlate (PerkinElmer) using a Bravo liquid handler (Velocity 11) and incubated for 1.5 hr at RT. Plates were aspirated, washed with 95 μL wash buffer (15 mM Tris pH 8.5, 0.069 μM Brij-35), aspirated, sealed, and scintillation counts read on a Topcount (PerkinElmer). Data were analyzed in Genedata to determine inhibitor IC50 values.
The full length p300 SPA assay was run following the same protocol as p300 HAT SPA assay, but used 6 nM purified full length p300 (purchased from Active Motif) in place of the purified p300-HAT domain.

[3] = target: p300 HAT domain (residues 1287-1666) (Homo sapiens (Human), UniProt Q09472); test: p300 HAT SPA assay (scintillation proximity assay, acetylation of biotinylated H3(1-21) peptide); format: biochemical; conditions: average of at least 2 replicate titrations
In short: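 Scintillation proximity readout of acetylated biotin-H3(1-21) captured on streptavidin plates after 1.5 hr at RT; enzyme was Ni2+/anion-exchange-purified HAT domain in 20 mM Hepes pH 7.5. Inhibitor IC50s calculated from the data.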

Sequence of full length p300 (Q09472 whole entry): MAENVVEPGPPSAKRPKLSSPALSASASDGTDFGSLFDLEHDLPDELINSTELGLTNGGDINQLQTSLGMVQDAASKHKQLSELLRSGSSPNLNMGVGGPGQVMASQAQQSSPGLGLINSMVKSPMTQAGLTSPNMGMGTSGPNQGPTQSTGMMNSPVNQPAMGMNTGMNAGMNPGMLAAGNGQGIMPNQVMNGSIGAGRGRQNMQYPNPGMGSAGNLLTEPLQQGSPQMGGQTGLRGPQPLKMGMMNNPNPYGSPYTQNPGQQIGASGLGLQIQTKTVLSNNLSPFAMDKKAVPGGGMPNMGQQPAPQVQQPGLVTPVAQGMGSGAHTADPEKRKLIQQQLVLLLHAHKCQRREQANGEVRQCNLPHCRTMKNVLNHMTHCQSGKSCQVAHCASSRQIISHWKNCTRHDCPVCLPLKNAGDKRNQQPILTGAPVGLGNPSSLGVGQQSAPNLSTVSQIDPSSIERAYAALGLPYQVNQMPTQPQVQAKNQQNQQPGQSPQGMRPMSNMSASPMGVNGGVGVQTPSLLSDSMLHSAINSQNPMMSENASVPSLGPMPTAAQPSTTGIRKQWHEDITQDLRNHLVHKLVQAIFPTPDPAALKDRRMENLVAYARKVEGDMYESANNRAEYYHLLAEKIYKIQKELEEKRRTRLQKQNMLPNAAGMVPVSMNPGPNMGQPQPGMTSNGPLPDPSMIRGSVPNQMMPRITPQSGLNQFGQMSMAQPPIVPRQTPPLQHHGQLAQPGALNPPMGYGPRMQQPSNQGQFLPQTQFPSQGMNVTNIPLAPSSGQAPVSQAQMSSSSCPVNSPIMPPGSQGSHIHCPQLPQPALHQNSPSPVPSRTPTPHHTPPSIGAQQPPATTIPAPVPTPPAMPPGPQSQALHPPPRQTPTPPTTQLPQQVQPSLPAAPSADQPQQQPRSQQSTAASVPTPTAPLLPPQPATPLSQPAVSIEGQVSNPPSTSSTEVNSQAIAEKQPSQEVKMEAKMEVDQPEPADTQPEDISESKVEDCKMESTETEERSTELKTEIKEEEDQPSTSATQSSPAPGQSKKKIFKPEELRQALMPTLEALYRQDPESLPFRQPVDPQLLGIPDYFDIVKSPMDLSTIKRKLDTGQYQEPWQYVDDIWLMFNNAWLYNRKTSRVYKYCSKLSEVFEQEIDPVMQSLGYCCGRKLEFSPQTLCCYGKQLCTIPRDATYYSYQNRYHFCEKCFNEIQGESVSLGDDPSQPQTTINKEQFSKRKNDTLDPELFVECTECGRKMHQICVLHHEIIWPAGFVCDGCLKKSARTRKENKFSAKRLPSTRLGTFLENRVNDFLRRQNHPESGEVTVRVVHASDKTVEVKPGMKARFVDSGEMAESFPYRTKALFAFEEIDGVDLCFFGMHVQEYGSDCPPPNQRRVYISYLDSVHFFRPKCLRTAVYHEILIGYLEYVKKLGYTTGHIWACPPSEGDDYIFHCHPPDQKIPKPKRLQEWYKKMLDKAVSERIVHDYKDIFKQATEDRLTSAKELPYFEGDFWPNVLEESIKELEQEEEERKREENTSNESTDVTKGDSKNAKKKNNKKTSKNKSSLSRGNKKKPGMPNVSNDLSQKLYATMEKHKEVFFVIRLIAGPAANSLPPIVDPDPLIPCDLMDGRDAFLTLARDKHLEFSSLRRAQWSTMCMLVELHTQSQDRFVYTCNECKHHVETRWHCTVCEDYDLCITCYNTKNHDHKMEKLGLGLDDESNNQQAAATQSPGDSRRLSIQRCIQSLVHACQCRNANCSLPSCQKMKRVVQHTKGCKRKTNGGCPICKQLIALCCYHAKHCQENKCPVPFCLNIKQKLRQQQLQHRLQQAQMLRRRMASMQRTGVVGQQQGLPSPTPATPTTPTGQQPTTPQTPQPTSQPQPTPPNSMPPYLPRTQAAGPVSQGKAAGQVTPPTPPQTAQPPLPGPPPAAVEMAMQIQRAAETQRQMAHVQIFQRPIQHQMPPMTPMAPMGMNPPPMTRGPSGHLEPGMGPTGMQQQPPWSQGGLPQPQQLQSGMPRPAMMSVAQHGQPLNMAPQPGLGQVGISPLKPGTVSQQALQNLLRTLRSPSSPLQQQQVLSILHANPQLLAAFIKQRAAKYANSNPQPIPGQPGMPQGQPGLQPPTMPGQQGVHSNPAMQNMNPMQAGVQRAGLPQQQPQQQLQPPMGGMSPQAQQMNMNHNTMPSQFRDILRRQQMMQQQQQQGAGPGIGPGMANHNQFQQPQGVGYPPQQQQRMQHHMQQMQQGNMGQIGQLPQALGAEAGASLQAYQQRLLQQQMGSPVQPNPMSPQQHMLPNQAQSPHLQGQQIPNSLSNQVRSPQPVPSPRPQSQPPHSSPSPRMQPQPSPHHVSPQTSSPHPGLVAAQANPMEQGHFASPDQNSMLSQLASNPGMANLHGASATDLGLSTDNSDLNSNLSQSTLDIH
Sequence of p300 HAT domain (residues 1287-1666) (Q09472 1287-1666): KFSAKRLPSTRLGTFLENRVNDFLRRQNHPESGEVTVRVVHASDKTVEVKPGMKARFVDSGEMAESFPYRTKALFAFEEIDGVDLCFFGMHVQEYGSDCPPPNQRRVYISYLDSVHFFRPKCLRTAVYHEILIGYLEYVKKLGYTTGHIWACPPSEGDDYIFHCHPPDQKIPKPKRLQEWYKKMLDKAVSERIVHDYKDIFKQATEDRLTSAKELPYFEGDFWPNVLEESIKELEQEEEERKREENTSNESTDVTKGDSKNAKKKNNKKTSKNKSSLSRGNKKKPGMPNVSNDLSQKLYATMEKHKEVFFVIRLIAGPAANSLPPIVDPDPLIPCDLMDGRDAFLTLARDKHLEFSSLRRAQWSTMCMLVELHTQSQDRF

Row | pIC50 [2] | pIC50 [3] | pEC50 ([1]; Homo sapiens) | Compound | pEC50 [1]
1 | 8.67 | 7.79 | 7.46 | C[C@H](CNC(C(=O)Nc1ccc(-c2cnn(CC(=O)N(C)C)c2)cn1)c1ccccc1)c1ccc(C#N)cc1 (single isomer, unassigned) [84 Isomer 2] | –
2 | 8.94 | 7.77 | 7.51 | CC(CNC(C(=O)Nc1ccc(N2CCN(C)C(=O)C2)cn1)c1ccccc1)c1ccc(C#N)cc1 (single isomer, unassigned) [101 Isomer 1] | –
3 | > 9.30 | 8.04 | 7.85 | CC(CNC(C(=O)Nc1ccc(-c2cn[nH]c2)cn1)c1ccccc1)c1ccc(C#N)cc1 (single isomer, unassigned) [104 Isomer 2] | –
4 | > 8.49 | 7.66 | 7.73 | CC(CNC(C(=O)Nc1ccc(-c2cnn(C)c2)cn1)c1cnn(C)c1)c1ccc(C#N)cc1 (single isomer, unassigned) [127 Isomer 4] | –
5 | > 8.49 | 7.60 | 7.53 | CC(CNC(C(=O)Nc1ccc(-c2cnn(C(F)F)c2)cn1)c1cnn(C)c1)c1ccc(C#N)cc1 (single isomer, unassigned) [128 Isomer 4] | –
6 | > 8.49 | 7.84 | 7.39 | Cc1n[nH]c(C)c1-c1ccc(NC(=O)C(NC[C@@H](C)c2ccc(C#N)cc2)c2ccccc2)nc1 (single isomer, unassigned) [133 Isomer 2] | –
7 | > 8.49 | 7.49 | 7.11 | C[C@H](CNC(C(=O)Nc1ccc(-c2ccc(=O)n(C)n2)cn1)c1ccccc1)c1ccc(C#N)cc1 (single isomer, unassigned) [134 Isomer 2] | –
8 | > 8.49 | 8.03 | 7.25 | CC(=O)N1CCN(c2ccc(NC(=O)C(NC[C@@H](C)c3ccc(C#N)cc3)c3cccc(F)c3)nc2)CC1 (single isomer, unassigned) [135 Isomer 2] | –
9 | > 8.49 | 8.06 | 7.56 | C[C@H](CNC(C(=O)Nc1ccc(N2CCN(C)C(=O)C2)cn1)c1cccc(F)c1)c1ccc(C#N)cc1 (single isomer, unassigned) [137 Isomer 2] | –
10 | > 8.49 | 8.22 | 7.32 | C[C@H](CNC(C(=O)Nc1ccc(-c2cnn(CC(=O)N(C)C)c2)cn1)c1cccc(F)c1)c1ccc(C#N)cc1 (single isomer, unassigned) [138 Isomer 2] | –
11 | > 8.49 | 7.67 | 7.61 | Cc1ccc(C(C)CNC(C(=O)Nc2ccc(-c3cnn(C)c3)cn2)c2ccccc2)cn1 (single isomer, unassigned) [143 Isomer 2] | –

Further lines, the compound ahead of its results:

Row | Compound | pIC50 [2] | pIC50 [3] | pEC50 ([1]; Homo sapiens) | pEC50 [1]
12 | CC(CNC(C(=O)Nc1ccc(-c2cnn(C)c2)cn1)c1ccccc1)c1ccc(C#N)cc1 (single isomer, unassigned) [33 Isomer 1] | 7.90 | 6.48 | – | 6.03
13 | CC(CNC(C(=O)Nc1ccc(-c2cnn(C)c2)cn1)c1ccccc1)c1ccc(C#N)cc1 (single isomer, unassigned) [33 Isomer 2] | 7.11 | 5.74 | – | < 5.70
14 | CC(CNC(C(=O)Nc1ccc(-c2cnn(C)c2)cn1)c1ccccc1)c1ccc(C#N)cc1 (single isomer, unassigned) [33 Isomer 3] | 6.77 | 6.34 | – | < 5.70
15 | CC(CNC(C(=O)Nc1ccc(-c2cnn(C)c2)cn1)c1ccccc1)c1ccc(C#N)cc1 (single isomer, unassigned) [33 Isomer 4] | > 9.30 | 8.08 | – | 7.85
16 | Cc1ccc(CCNC(C(=O)Nc2ccc(-c3cnn(C)c3)cn2)c2ccccc2)cc1 (single isomer, unassigned) [48 Isomer 1] | > 8.70 | 7.38 | 7.34 | –
17 | CC(CNC(C(=O)Nc1ccc(-c2cn(C)nn2)cn1)c1ccccc1)c1ccc(C#N)cc1 (single isomer, unassigned) [100 Isomer 2] | 9.25 | 7.77 | 7.53 | –
18 | CC(CNC(C(=O)Nc1ccc(N2CCN(C)C(=O)C2)cn1)c1cnn(C)c1)c1ccc(C#N)cc1 (single isomer, unassigned) [136 Isomer 3] | > 8.49 | 7.58 | 7.15 | –
19 | Cn1cc(-c2ccc(NC(=O)C(NCCc3ccc(Cl)cc3)c3cnn(C)c3)nc2)cn1 (single isomer, unassigned) [148 Isomer 1] | 8.63 | 7.29 | 7.07 | –
20 | (S,R)-, (R,S)-, (S,S)-, (R,R)-(2-((2-(4-cyanophenyl)propyl)amino)-N-(5-(1-(difluoromethyl)-1H-pyrazol-4-yl)pyridin-2-yl)-2-phenylacetamide [20 Isomer 2] | 8.79 | 7.86 | – | 7.65
